This is an account of results in PubChem BioAssay AID2696 (Johns Hopkins Ion Channel Center, 2010).

SMILES strings stand for the structures. pIC50: −log10 of the molar value. Values joined by “and” are separate entries in the source; they are usually repeats but may differ in a detail not shown here. Equal entries are not always repeated.

Chain of Short transient receptor potential channel 6 (Mus musculus) (Q61143 whole entry, looked up): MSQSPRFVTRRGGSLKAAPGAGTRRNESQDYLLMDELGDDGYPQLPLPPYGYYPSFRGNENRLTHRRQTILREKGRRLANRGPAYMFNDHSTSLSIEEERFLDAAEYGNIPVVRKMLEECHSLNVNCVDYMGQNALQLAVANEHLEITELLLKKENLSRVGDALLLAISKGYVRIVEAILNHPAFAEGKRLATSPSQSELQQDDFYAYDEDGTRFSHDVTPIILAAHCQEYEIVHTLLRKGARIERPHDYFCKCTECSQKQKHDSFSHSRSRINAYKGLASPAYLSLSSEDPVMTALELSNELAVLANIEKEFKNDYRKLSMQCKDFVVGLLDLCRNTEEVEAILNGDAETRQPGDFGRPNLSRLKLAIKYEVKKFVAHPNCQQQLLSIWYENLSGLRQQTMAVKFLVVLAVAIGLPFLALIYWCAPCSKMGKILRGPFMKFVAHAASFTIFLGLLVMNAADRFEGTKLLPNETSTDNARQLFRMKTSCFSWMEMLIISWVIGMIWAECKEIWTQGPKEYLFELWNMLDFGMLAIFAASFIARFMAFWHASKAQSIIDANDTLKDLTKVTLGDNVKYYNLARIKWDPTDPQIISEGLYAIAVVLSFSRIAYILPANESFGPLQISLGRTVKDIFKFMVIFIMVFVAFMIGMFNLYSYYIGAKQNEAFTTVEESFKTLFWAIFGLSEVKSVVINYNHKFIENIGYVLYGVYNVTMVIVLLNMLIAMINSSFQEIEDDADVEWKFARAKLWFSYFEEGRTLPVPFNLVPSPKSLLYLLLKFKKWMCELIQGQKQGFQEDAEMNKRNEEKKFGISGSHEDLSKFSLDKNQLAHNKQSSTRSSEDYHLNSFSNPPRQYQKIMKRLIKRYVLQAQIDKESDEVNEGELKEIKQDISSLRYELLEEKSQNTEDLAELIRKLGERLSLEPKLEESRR

The experiment concerns the target Short transient receptor potential channel 6 (Mus musculus) (UniProt Q61143). The experiment is described as follows: TRPC6 inhibitor potency, dose response, cell-based, mouse TRPC6, HEK293, membrane potential (AID 2696). Particulars: TRPC6-expressing HEK293 cells, membrane potential dye fluorescence, acetylcholine-stimulated.
One may read the pIC50 as the negative decadic logarithm of the IC50, by convention in mol/L. Consider `CN1CCN(c2ncccc2S(=O)(=O)N2CCCCC2)CC1`, for which the pIC50 is 4.95.

In the case of `S=c1[nH]nc(Cc2ccccc2)n1Cc1ccco1`, the negative-log IC50 (pIC50) is 4.40.

Regarding `C[N+]12CCC(CC1)C(=C(c1ccccc1)c1ccccc1)C2`, the negative logarithm of the IC50 (pIC50) is 5.35.

Take `OC(Cn1c2ccccc2c2ccccc21)C[n+]1cccc2ccccc21` (centres undefined): the negative-log IC50 (pIC50) is 4.45.

Regarding `CCC(C)N(CCNC(=O)CC1Oc2ccccc2NC1=O)C1CCCCC1` (centres undefined), the negative-log IC50 (pIC50) is 4.55.

In the case of `CCN(CC)CCC#CC(O)(c1ccccc1)c1ccccc1`, the pIC50 is 4.85.

Consider `Nc1c2c(nc3ccccc13)N(C1CCCCC1)CC2`, for which the negative logarithm of the IC50 (pIC50) is 4.15.

Regarding `CCCCCOC(=O)c1ccc(NC(=O)c2ccco2)cc1`, the pIC50 was 4.15.

For `CN(C)CCOC(=O)C(c1ccccc1)C1(O)CCCC1` (centres undefined), the pIC50 was 5.75.

Take `CCCCNC(=O)c1cc2c(=O)n3cccc(C)c3nc2n(Cc2ccncc2)c1=N`: the negative-log IC50 (pIC50) is 4.35.

With `CN(C)CCNc1c2c(c(C#N)c3nc4ccccc4n13)CCCC2`, the negative logarithm of the IC50 (pIC50) was 4.10.

With `COC(=O)C(NC(=O)c1ccc(C)cc1)(Nc1cccc(C)n1)C(F)(F)F` (centres undefined), the pIC50 is 4.30.

As for `COc1cc(-c2nc3ccc(C)cn3c2Nc2ccc3c(c2)OCCO3)ccc1O`, the pIC50 was 4.35.

Take `COc1ccc2nc(C)cc(Nc3ccc(N4CCN(C)CC4)cc3)c2c1`: the pIC50 is 4.10.

With `CCN(CC)CCOC(=O)C1(c2ccccc2)CCCC1`, the negative-log IC50 (pIC50) was 4.80.

Turning to `CCCn1c(=N)c(C(=O)NC2CCCC2)cc2c(=O)n3cccc(C)c3nc21`, the pIC50 is 4.35.

Take `COc1cc(/C=N/Nc2nncc3ccccc23)cc(OC)c1OC`: the negative-log IC50 (pIC50) is 4.35.

As for `CCOc1ccc(NC(=O)c2c(NC(=O)CN3CCN(C)CC3)sc3c2CCC3)cc1`, the pIC50 was 4.35.

Regarding `CCCCCCCCCCn1ccc(=N)cc1`, the pIC50 was 4.40.

In the case of `Cc1ccccc1CCNCc1cc2cccc(C)c2[nH]c1=O`, the pIC50 was 4.30.

In the case of `CCN(CC)CC#CC(O)(c1ccccc1)c1ccccc1`, the pIC50 is 5.05.

For `C[N+]1(C)CCCC(OC(=O)C(O)(c2ccccc2)c2ccccc2)C1` (centres undefined), the pIC50 is 6.05.

Take `CC(C)CC1CCCCC1OC(=O)C[N+]1(C)CCCCC1` (centres undefined): the pIC50 is 4.80.

`Cc1cccc[n+]1CC(=O)N1c2ccccc2Sc2ccccc21`: the pIC50 was 5.35.

`CCOC(=O)c1ccc(NC(=O)CC2COc3ccccc3O2)cc1` (centres undefined): the pIC50 was 4.20.

Regarding `C=C(C)c1cccc(C(C)(C)NC(=O)NCCN(CC)CC)c1`, the negative-log IC50 (pIC50) is 4.55.

Turning to `CCN(CC)CC(=O)N1c2ccccc2Sc2ccc(Cl)cc21`, the pIC50 is 4.35.

Consider `CN1[C@@H]2CC[C@H]1CC(OC(=O)C(CO)c1ccccc1)C2` (some centres undefined), for which the pIC50 is 7.10.

`COc1cc2c(cc1O)CC[n+]1cc3c(OC)c(OC)ccc3cc1-2`: the pIC50 is 4.30.

As for `Cc1cc(C)c2nc(C)cc(Nc3ccc(C(=O)N4CCOCC4)cc3)c2c1`, the pIC50 was 4.10.

As to `C[N+]1(C)[C@@H]2CC(OC(=O)[C@H](CO)c3ccccc3)C[C@H]1[C@@H]1O[C@@H]12` (some centres undefined), the pIC50 is 7.52.

For `CN1CCC(OC(c2ccccc2)c2ccccc2)CC1`, the negative-log IC50 (pIC50) is 4.80.

Turning to `N#CC(c1cccc(Cl)c1)c1ccc2c(C(F)(F)F)cc(C(F)(F)F)nc2n1` (centres undefined), the pIC50 was 4.50.

Take `CCCn1c(=N)n(CC(=O)c2ccc(Cl)cc2)c2ccccc21`: the pIC50 is 4.15.

Turning to `CC(NC(=O)Nc1nnc(C(F)(F)F)s1)(C(F)(F)F)C(F)(F)F`, the negative logarithm of the IC50 (pIC50) was 4.65.

Take `COc1ccc(-n2nc(C(=O)c3cccs3)cc(-c3nc4ccccc4[nH]3)c2=N)cc1`: the pIC50 is 4.30.

`CCOC(=O)c1ccc(NC(=S)NCc2ccco2)cc1`: the pIC50 was 4.30.

As for `Cc1nnsc1C(=O)N/N=C/c1ccc2ccccc2c1O`, the negative logarithm of the IC50 (pIC50) was 5.05.

On to `Cc1ccc(S(=O)(=O)NNC(=O)C2CCN(Cc3ccccc3)CC2)cc1`, for which the pIC50 was 5.55.

For `Cc1ccc(N2C(=O)CSC2c2c(F)cccc2Cl)cc1` (centres undefined), the pIC50 is 4.75.

In the case of `Cn1c2c(c(=O)n(C)c1=O)C(C(F)(F)F)(C(F)(F)F)N=C(c1ccc(Cl)cc1)N2`, the negative logarithm of the IC50 (pIC50) is 5.10.

On to `CCCc1ncc(C(O)(c2ccccc2)c2ccccc2)n1C`, for which the pIC50 was 4.40.

As for `CCOC(=O)c1c(CNc2ccncc2)n(C)c2cc(Br)c(O)cc12`, the negative logarithm of the IC50 (pIC50) is 4.35.

As for `CN(C)C(C)(C)/C=C/C(O)(c1ccccc1)c1ccccc1`, the pIC50 was 4.75.

In the case of `Cc1nc2c(o1)CCc1ccccc1C2N1CCN(C)CC1` (centres undefined), the pIC50 is 6.10 and 5.50.

Turning to `c1ccc2c(c1)CCc1ccccc1C2=C1CCNCC1`, the negative logarithm of the IC50 (pIC50) was 4.55.

For `CCN(CC)CCCOC(=O)C(c1ccccc1)c1ccccc1`, the negative-log IC50 (pIC50) was 5.50.

For the molecule `Cc1ccc(Sc2c([N+](=O)[O-])c(C)nn2C)cc1`, the negative logarithm of the IC50 (pIC50) was 4.45.

Consider `COc1ccc(CCC(C)NC2C3CC4CC(C3)CC2C4)cc1` (centres undefined), for which the pIC50 is 4.35.

Take `Oc1ccccc1Oc1ncc(Br)c(N2CCOCC2)n1`: the pIC50 was 4.40.

As to `Cc1c(CCCN)c2ccccc2n1Cc1ccccc1`, the pIC50 was 4.15.

As for `CN(C)CCN(C(=O)c1ccc2c(c1)OCCO2)c1nc2c(Cl)cccc2s1`, the pIC50 was 4.30.

Take `CC(C)c1ccc(OCC(O)Cn2cnc3ccccc32)cc1` (centres undefined): the pIC50 was 4.40.

For `Cc1c(C)n(Cc2ccccc2)c2ccc(C(=O)OCCCN(C)C)cc12`, the negative logarithm of the IC50 (pIC50) was 4.35.

For `CCOC(=O)N1CCN(Cc2nc(-c3ccc(Cl)cc3)no2)CC1`, the pIC50 was 4.10.

For `OC(C#CCN1CCCC1)(c1ccccc1)c1ccccc1`, the negative-log IC50 (pIC50) was 5.40.

As for `CCN(CC)CCNC(=O)c1ccc(NC(=O)c2cccc(S(=O)(=O)Nc3ccc(C)cc3)c2)cc1`, the pIC50 was 4.50.

For `CSCc1cc(N(C)c2ccccc2)nc(-c2ccccn2)n1`, the pIC50 was 4.55.

`O=[N+]([O-])c1ccc(N=Nc2c(Cl)cc(O)cc2Cl)cc1`: the pIC50 was 4.60.

For the molecule `Cc1cccc(-c2nc(NCCCN(C)C)c3ccccc3n2)c1`, the negative logarithm of the IC50 (pIC50) was 4.15.

Turning to `COC(=O)c1ccc(Nc2cc(C)nc3ccc(C)cc23)cc1`, the negative-log IC50 (pIC50) is 4.50.

For the molecule `Cc1cccc(CCNCc2cc3cccc(C)c3[nH]c2=O)c1`, the negative-log IC50 (pIC50) was 4.30.

`O=C(CSc1c2c(nc3ccc(Cl)cc13)CCCC2)NCCCN1CCOCC1`: the pIC50 was 4.40.

Take `CC(C)(C)c1ccc(OCCCCCCN2CCNCC2)cc1`: the pIC50 was 4.30.

Regarding `O=C(NCC(=O)N(c1ccc2c(c1)OCCO2)C(C(=O)NC1CCCC1)c1ccco1)c1ccco1` (centres undefined), the negative logarithm of the IC50 (pIC50) is 4.35.

`Cc1cccn2c(=O)c3cc(C(=O)NCc4ccco4)c(=N)n(C(C)C)c3nc12`: the pIC50 is 4.35.

As to `CN(C)c1ccc(C2N(C)C(=O)c3ccccc3N2C)cc1` (centres undefined), the negative-log IC50 (pIC50) is 4.10.

On to `COC(=O)c1ccc(NC(=O)c2snnc2-c2ccccc2)cc1`, for which the pIC50 was 4.40.

With `CCCC(CCC)C(=O)OC1C[C@H]2CC[C@@H](C1)[N+]2(C)C` (some centres undefined), the pIC50 is 5.45.

As to `O=C(OCCN1CCCC1)C1(c2ccccc2)CCCC1`, the pIC50 is 4.80.

For `CCOC(=O)N1CCC(N2Cc3cccc(C(=O)Nc4ccc(CC)cc4)c3C2=O)CC1`, the negative-log IC50 (pIC50) is 4.35.

As for `Cc1ccc(CNc2ccc3c(c2)ncn3C(C)(C)C)cc1`, the negative-log IC50 (pIC50) was 4.35.

With `Cc1cc(C)c2sc(N(CCCN(C)C)C(=O)c3ccc(Br)s3)nc2c1`, the pIC50 was 4.20.

In the case of `C[n+]1ccccc1/C=C/c1ccc(F)c(F)c1`, the negative logarithm of the IC50 (pIC50) is 4.35.

For the molecule `Cc1cc(C)n(-c2nc(NCCCN(C)C)c3c4c(sc3n2)CCCC4)n1`, the negative-log IC50 (pIC50) is 4.35.

Consider `CN1CCCC(C#CC(O)(c2ccccc2)c2ccccc2)C1` (centres undefined), for which the negative-log IC50 (pIC50) is 4.80.

Consider `COc1ccccc1-n1c(-c2ccccc2)c[n+]2c1CCc1ccccc1-2`, for which the negative-log IC50 (pIC50) was 4.70.

Regarding `C[N+](C)(N)CCOC(=O)C(O)(c1ccccc1)C1CCCCC1` (centres undefined), the pIC50 is 6.49.

With `Cc1ccc(C(=O)OCCc2sc[n+](Cc3ccccc3)c2C)cc1`, the negative logarithm of the IC50 (pIC50) was 4.75.

Consider `N=c1c(C(=O)NCCN2CCOCC2)cc2c(=O)n3ccccc3nc2n1CCc1ccccc1`, for which the pIC50 was 4.30.

As to `CCCCCOc1ccc(CSC(=N)N)cc1[N+](=O)[O-]`, the pIC50 is 4.10.

As for `O=C(Nc1ccccc1)Nc1ncc([N+](=O)[O-])s1`, the pIC50 is 4.45.

For the molecule `CN1CCN(C2=Nc3cc(Cl)ccc3Nc3ccccc32)CC1`, the negative logarithm of the IC50 (pIC50) was 4.80.

As for `CN(C)CCCOC(=O)C1c2ccccc2Oc2ccccc21`, the pIC50 was 5.20.

Regarding `CC1CCC(C(C)C)C(OCC[N+](C)(C)C)C1` (centres undefined), the negative logarithm of the IC50 (pIC50) was 5.55.

As to `CC(C)[N+](C)(C)CC#CC(O)(c1ccccc1)c1ccccc1`, the pIC50 is 5.70.

Take `CC[N+](CC)(CC)CCCOC(=O)C(O)(c1ccccc1)C1CCCCC1` (centres undefined): the negative-log IC50 (pIC50) is 7.22.

As for `C[N+](C)(C)C/C=C1/COCO1`, the pIC50 was 4.95.

`CCOC(=O)N1CCC(N2CCN(CCC(C)C)C(CCO)C2)CC1` (centres undefined): the pIC50 is 4.85.

In the case of `CCN(CC)CCCOC(=O)C(OC(C)C)(c1ccccc1)c1ccccc1`, the pIC50 is 5.40.

With `CCOC(=O)N1CCN(S(=O)(=O)c2cc(Br)cnc2N)CC1`, the pIC50 is 4.70.

Take `CCCCC(O)(CCN1CCOCC1)c1ccc(Cl)cc1` (centres undefined): the pIC50 was 4.35.

For `Cc1cc(N=Nc2ccccc2)c(NCC(O)C(O)C(O)CO)cc1C` (centres undefined), the negative logarithm of the IC50 (pIC50) was 4.30.

Take `COCCNC(=O)c1cc2c(=O)n3cccc(C)c3nc2n(Cc2ccncc2)c1=N`: the pIC50 was 4.40.

In the case of `COc1ccc(C(=O)C2CCCN(Cc3cccn3-c3ccccn3)C2)cc1F` (centres undefined), the negative logarithm of the IC50 (pIC50) was 4.10.

Regarding `Fc1ccc2[nH]c3c(c2c1)CN(C(=S)NCc1ccccc1)CC3`, the pIC50 was 4.50.

In the case of `Cc1cc(C)nc(/N=C(\N)N(Cc2ccccc2)Cc2ccccc2)n1`, the pIC50 was 4.55.

As to `Cc1ccc(S(=O)(=O)n2c(N)nc3ccccc32)cc1`, the pIC50 was 4.75.

As for `C[N+]1(CCOC(=O)C2(c3ccccc3)CCCC2)CCCCC1`, the pIC50 is 4.80.

For the molecule `Cc1c(C(=O)OC(C)CCN(C)C)oc2ccccc12` (centres undefined), the pIC50 is 4.85.

Turning to `O=S(=O)(Nc1nc2ccccc2[nH]1)c1ccc(Cl)cc1`, the negative-log IC50 (pIC50) was 5.15.

In the case of `CCN(CC)CC(=O)Nc1ccc(-c2nc3cc(NC(=O)CN(CC)CC)ccc3o2)cc1`, the negative logarithm of the IC50 (pIC50) is 4.10.

For `Cc1cccc2sc(N(CCCN(C)C)C(=O)c3ccco3)nc12`, the pIC50 is 4.15.

As for `CCCc1cc(=S)n2c([nH]c3ccccc32)c1C#N`, the pIC50 was 4.30.
